Our source for the EC50, IC50 and AC50 values is ChEMBL document CHEMBL1201862, “PubChem BioAssay data set” (2004).

Assay [1] addresses T1, Corticotropin-releasing factor receptor 2/Corticotropin-releasing factor-binding protein (Homo sapiens, UniProt P24387+Q13324).
T1 sequence (Q13324 whole entry): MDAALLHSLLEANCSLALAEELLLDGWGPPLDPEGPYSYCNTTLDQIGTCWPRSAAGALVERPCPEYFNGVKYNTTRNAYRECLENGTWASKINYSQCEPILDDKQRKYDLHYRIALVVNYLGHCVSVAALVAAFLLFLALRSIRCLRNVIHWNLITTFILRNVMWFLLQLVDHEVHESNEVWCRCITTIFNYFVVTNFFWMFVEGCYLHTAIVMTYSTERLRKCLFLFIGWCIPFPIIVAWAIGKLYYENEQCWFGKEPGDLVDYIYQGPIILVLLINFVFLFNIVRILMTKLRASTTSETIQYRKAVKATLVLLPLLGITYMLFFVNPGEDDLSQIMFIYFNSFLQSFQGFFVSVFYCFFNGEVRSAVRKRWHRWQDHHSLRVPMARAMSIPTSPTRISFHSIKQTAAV
T1 sequence (P24387 whole entry): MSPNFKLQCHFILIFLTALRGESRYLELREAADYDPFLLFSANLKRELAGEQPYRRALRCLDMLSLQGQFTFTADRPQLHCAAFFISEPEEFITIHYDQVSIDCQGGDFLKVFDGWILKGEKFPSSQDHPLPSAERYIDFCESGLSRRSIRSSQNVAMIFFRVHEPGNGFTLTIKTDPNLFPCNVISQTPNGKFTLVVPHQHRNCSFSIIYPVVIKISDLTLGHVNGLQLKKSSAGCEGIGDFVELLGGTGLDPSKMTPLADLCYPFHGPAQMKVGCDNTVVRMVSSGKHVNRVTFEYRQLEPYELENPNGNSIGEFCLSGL
Kind of assay: activators of CRF receptor 2 with binding protein – uHTS hits, confirmation (AID 602473). The format is functional. The note with it: read-out: EC50_Mean.

In another assay the target is T2, Insulin-degrading enzyme (Homo sapiens, UniProt P14735).
T2 sequence (P14735 whole entry): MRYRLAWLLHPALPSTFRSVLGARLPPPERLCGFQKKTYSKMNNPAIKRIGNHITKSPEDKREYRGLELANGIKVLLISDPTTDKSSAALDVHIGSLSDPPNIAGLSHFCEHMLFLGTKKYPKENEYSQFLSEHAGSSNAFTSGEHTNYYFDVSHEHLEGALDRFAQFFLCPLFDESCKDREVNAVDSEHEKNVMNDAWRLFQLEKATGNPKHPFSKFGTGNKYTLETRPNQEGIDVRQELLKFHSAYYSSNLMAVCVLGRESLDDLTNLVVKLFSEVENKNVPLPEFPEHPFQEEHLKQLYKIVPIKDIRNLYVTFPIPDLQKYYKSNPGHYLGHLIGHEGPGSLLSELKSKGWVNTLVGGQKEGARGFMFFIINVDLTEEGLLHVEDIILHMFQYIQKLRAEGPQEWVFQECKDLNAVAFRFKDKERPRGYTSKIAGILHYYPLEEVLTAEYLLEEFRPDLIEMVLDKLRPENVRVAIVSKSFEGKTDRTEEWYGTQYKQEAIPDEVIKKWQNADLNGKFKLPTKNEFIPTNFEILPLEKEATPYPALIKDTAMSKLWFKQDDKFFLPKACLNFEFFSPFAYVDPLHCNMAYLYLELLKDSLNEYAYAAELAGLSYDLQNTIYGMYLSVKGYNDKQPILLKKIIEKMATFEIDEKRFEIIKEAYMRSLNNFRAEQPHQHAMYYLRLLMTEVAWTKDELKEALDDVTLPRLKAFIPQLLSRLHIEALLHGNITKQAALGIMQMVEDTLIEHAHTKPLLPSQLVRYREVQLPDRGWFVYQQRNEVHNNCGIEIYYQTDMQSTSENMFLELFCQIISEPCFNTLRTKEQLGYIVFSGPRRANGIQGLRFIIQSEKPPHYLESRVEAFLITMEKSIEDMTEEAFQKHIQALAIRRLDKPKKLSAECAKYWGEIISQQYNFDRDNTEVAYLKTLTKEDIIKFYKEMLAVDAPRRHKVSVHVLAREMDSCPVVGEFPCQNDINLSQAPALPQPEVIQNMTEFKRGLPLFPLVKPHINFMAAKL
As to the kind of experiment: Dose Response: Fluorescence polarization-based cell-based high throughput dose response assay for inhibitors of insulin-degrading enzyme (IDE). [Related pubchem assays: 434962 (Primary screen (IDE inhibitors in singlicate)), 449730 (Counterscreen (Cytotoxicity in triplicate)), 435028 (Confirmation (IDE inhibitors in triplicate)), 434984 (Summary …. The format is functional.

Assay [2] is described as follows: Counterscreen for IDE inhibitors: Luminescence-based cell-based high throughput dose response assay to identify compounds that are cytotoxic to HEK cells. [Related pubchem assays: 434962 (Primary screen (IDE inhibitors in singlicate)), 449730 (Counterscreen (Cytotoxicity in triplicate)), 435028 (Confirmation (IDE inhibitors in triplicate)) …. The format is functional. Particulars: HEK293.

The next assay addresses T3, Estrogen receptor (Homo sapiens, UniProt P03372).
T3 sequence (P03372 whole entry): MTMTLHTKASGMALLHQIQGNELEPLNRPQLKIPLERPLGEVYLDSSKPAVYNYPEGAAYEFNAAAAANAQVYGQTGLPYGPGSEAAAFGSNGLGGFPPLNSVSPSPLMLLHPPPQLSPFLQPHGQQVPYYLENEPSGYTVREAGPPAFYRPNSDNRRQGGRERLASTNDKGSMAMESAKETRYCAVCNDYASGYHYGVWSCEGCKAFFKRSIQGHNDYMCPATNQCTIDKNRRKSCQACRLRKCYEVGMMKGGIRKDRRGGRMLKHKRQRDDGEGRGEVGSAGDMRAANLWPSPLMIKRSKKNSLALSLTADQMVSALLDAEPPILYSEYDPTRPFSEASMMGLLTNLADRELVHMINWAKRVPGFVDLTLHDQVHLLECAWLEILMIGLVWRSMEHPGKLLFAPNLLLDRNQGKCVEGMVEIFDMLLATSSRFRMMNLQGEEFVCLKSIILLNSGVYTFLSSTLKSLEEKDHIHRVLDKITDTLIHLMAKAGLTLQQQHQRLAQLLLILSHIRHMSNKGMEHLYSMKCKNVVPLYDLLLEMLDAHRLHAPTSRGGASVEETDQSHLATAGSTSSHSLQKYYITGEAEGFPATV
As to the kind of experiment: ERα–SRC-3 coactivator interaction inhibitors, confirmation, orthogonal assay, biochemical, ELISA, streptavidin-HRP readout (AID 1079).

The next assay deals with T4, Aminopeptidase N (Plasmodium falciparum FcB1/Columbia, UniProt O96935).
T4 sequence (O96935 whole entry): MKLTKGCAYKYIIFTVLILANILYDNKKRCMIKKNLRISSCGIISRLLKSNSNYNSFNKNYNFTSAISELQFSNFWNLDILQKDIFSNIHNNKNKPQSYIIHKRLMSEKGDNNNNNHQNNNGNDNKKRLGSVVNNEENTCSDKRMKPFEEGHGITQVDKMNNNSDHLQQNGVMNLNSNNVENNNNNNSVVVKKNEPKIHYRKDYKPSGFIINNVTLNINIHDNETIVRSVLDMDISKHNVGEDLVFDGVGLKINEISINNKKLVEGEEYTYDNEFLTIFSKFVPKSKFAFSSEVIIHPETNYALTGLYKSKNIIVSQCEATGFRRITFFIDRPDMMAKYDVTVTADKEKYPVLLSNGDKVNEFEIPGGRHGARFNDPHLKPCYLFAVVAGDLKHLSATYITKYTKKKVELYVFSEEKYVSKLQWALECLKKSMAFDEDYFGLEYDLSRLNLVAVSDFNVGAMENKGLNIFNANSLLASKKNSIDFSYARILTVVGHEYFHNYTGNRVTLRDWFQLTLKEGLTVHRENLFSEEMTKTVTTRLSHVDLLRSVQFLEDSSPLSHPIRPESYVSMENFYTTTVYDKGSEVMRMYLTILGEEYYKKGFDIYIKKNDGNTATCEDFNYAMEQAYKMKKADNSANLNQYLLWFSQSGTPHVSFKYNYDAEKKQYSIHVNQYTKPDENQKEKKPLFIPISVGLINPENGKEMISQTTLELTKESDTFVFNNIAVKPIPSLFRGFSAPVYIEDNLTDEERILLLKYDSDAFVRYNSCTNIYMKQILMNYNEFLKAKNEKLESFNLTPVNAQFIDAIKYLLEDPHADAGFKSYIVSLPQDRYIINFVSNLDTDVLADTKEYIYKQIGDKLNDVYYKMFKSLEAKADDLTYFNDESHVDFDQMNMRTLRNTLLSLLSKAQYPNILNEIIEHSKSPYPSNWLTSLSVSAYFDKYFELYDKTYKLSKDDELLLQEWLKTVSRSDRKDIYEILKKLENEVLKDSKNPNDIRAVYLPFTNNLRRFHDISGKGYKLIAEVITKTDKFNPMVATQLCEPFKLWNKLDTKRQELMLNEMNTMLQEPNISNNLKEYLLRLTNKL
As to the kind of experiment: P. falciparum M1AAP inhibitors, biochemical, fluorogenic H-Leu-NHMec substrate, 1536-well (AID 1445). On the set-up: species or system Plasmodium falciparum 3D7, 3D7.

The target of assay [3] is Bifunctional protein GlmU (Mycobacterium tuberculosis, UniProt P9WMN3). Kind of assay: Inhibitors of Mycobacterial Glucosamine-1-phosphate acetyl transferase (GlmU). Secondary screen. On the set-up: species or system Mycobacterium tuberculosis H37Rv.
The target in a further assay is T5, Protein RecA (Mycobacterium tuberculosis, UniProt P9WHJ3).
T5 sequence (P9WHJ3 whole entry): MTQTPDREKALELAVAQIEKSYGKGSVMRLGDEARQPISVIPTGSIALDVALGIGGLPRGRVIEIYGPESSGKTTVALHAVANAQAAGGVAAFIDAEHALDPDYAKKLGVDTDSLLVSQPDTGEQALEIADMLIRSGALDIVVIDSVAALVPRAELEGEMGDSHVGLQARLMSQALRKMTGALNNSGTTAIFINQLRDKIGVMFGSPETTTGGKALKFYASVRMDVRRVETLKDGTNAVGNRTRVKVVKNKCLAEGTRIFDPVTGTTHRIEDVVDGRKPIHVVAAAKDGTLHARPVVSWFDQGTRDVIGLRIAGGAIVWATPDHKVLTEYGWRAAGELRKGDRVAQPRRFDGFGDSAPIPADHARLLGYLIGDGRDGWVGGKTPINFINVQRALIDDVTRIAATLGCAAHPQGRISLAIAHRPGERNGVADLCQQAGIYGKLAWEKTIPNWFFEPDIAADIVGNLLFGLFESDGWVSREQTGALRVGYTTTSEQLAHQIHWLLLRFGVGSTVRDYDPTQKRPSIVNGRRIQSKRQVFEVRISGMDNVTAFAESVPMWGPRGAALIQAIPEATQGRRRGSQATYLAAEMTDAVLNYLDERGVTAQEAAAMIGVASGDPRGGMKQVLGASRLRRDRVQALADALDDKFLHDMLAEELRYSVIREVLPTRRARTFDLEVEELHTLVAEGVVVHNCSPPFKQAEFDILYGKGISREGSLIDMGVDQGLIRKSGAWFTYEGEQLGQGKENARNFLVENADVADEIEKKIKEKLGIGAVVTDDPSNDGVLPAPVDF
As to the kind of experiment: Fluorescence Cell-Free Homogeneous Dose Retest to Identify Inhibitors of RecA-Intein Splicing Activity. [Related pubchem assays (depositor defined):AID2097, AID2223, AID489010, AID492950]. The format is functional.

Assay [4] in a line: HIV-1 Env-mediated cell fusion inhibitors, dose response, CCR5-tropic Env (AID 2279). The format is functional.
In assay [5] the target is T6, Replicative DNA helicase DnaB (Mycobacterium tuberculosis, UniProt P9WMR3).
T6 sequence (P9WMR3 whole entry): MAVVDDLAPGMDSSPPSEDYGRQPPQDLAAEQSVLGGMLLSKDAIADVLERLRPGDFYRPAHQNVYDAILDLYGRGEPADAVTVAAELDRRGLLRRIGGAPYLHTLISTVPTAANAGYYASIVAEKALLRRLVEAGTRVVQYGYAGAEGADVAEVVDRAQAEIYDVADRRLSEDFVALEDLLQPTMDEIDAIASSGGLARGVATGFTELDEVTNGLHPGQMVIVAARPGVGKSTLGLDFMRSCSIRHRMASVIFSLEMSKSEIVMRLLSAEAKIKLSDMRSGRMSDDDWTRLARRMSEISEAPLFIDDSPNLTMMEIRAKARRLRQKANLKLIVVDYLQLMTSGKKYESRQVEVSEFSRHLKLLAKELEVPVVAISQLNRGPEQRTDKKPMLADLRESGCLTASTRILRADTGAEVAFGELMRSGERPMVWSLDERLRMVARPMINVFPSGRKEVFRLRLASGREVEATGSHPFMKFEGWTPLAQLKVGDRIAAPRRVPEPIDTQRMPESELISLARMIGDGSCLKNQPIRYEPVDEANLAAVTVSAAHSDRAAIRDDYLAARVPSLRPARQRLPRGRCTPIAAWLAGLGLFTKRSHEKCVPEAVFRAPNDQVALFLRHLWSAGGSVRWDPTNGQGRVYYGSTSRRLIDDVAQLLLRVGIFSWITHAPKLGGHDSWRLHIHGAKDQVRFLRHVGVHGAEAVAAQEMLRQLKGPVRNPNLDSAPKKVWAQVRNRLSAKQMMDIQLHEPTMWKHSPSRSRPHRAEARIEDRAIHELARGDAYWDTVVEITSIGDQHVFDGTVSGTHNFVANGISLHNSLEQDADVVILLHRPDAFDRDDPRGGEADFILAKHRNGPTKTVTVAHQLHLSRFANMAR
Kind of assay: DnaB intein splicing inhibitors, dose response, biochemical, cell-free fluorescence (AID 449749). The assay is classed as functional.

Assay [6] is described as follows: inhibitors of Bluetongue virus cytopathic effect, confirmation, arbovirus, BSR cells (AID 1250).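 Further: protection from viral cytopathic effect measured as cell viability by ATP luminescence.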 The assay is classed as functional.

The source made the active and inactive calls.

Sequence of Bifunctional protein GlmU (P9WMN3 whole entry): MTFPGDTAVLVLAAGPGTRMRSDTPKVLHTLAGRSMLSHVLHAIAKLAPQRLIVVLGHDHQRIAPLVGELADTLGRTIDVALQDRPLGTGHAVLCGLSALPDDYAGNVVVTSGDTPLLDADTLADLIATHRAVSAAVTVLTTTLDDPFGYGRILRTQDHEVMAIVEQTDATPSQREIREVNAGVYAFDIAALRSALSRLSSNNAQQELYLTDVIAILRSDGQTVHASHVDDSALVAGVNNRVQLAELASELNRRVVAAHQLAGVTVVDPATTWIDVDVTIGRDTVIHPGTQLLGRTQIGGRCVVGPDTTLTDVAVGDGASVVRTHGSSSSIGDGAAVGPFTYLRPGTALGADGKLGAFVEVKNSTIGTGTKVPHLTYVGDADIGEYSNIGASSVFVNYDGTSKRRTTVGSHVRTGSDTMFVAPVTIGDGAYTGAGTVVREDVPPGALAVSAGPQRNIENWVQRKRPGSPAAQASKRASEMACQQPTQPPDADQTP

As for `CCN(CC)c1ccc(/C=C2\CCC(/C=N/NC(=O)c3ccc(=O)n(C)c3)=C2N2CCOCC2)cc1`, the EC50 in assay [1] is 5.19 µM (active). Moreover, the results for the IC50 (against Insulin-degrading enzyme; in assay [2]) were 12.5 µM (not active) and 16.6 µM (not active), respectively.
With `N#Cc1cccc(N2CCN(C(=O)CCCCCn3c(=S)[nH]c4ccccc4c3=O)CC2)c1`, the 50% inhibitory concentration (IC50) against Estrogen receptor is 0.09 µM (not active).
For the molecule `N#C/C(=C\c1ccc(O)c([N+](=O)[O-])c1)c1nc2ccccc2s1`, the concentration for half-maximal inhibition (IC50) is 33.9 µM (active) at Aminopeptidase N, 71.8 µM (active) in assay [3], 3.41 µM (active) in [4] and > 100 µM (active) in assay [6]. Moreover, the EC50 on Protein RecA was 4.58 µM (active). Besides, the half-maximal activity concentration (AC50) in assay [5] is 7.01 µM (active).
